Results: patent publication US5863540A, “Adhesion molecule” (Duke University, priority 1993, dated 1999)

Columns and labels:
[1] = test system: T cell receptor-mediated T cell activation; assay: T cell receptor-mediated T cell activation (anti-CD3ε mab Leu 4) of PBMC, 3H-thymidine, CD44 peptides; format: cell-based, human
Procedure: Synthetic peptides were prepared by FMoc or TBoc chemistry, purified usin
HPLC, and resuspended in RPMI media prior to addition to 4 day in vitro
cultures. Following 4 days in culture, 3Hthymidine was added, and
following an incubation of 4 hours, the cultures were harvested using an
automated multiwell harvester using standard techiques.

[2] = test system: CD2-Mediated T Cell Activation; assay: T Cell Activation Assay: proliferation of PBMC stimulated with CD2 mabs 35.1 and 9-1; format: cell-based, human; settings: soluble, free protein instead of liposomes, data not shown
Procedure: CD44 Liposomes. Liposomes were prepared by the method of Mimms et al. ((1981) Biochemistry 20:833-840), using 1 μM purified CD44 or control glycophorin protein, 1 nM L-α-dioleoyl lecthin (Avanti Polar Lipids, Birmingham, Ala.), and 240 nM OG. Liposomes were analyzed for content of the appropriate protein using a novel labelling technique and flow cytometry. Liposomes were incubated with 5-(N-octadecanoyl) aminofluorescein (Molecular Probes, Eugene, Oreg.) in PBS×10 min at room temperature. Fluoresceinated liposomes were then reacted with […] magnetic beads (Dynabeads M-450 Goat anti-Mouse IgG, Dynal Inc., Great Neck, N.Y.) coated with CD44 (A3D8) or anti-glycophorin (E3,E4,E5) mAbs. After 45 minutes (4° C.), with continuous end-over-end rotation, beads were washed ×3 in PBS using a magnet to immobilize the beads during PBS changes. Fluoresceinated liposome-bead conjugates were then analyzed by flow cytometry.
T Cell Activation Assay. PBMC from healthy donors were stimulated with optimal mitogenic concentration of CD2 mabs 35.1 and 9-1 as described (Denning et al.). Where indicated, CD44 or control glycophorin liposomes (final protein range used was 28-140 nM) were added to these cultures 20 min prior to addition of CD2 mabs. […]

“(C)NRNDVTGGRRDPNHSEGS (CNRNDVTGGRRDPNHSEGS; N-terminal Cys) [CD44-19A]” was tested, and the “effect on T cell activation (in words)” value ([1]; 1 mg/ml peptide, anti-CD3 triggered PBMC cultures) was “inhibition of T cell activation”, the “% Inhibition” value ([1]; peptide 1 mg/ml, Leu 4 1:1000, 4 day culture) was 75% and the “Δ CPM 3H-Thymidine/106 Cells in Culture” value ([1]; peptide 1 mg/ml, Leu 4 1:1000, 4 day culture, control 199,816) was 50,318 Δ CPM 3H-Thymidine/106 Cells.
With “soluble, free CD44 protein: CD44 protein affinity-purified on A3D8-Sepharose from HuT 78 T cell lysate, single band at 80-85 kD” the “effect on CD2 stimulated PBMC culture” value [2] was “Identical results”.
